This note sets out measurements from ChEMBL document CHEMBL3769398 (J Med Chem, 2016).

The term IC50 denotes the concentration that gives 50% inhibition.

Experiment [1] has as its target T1, Protein deacetylase HDAC6 (Homo sapiens, UniProt Q9UBN7).
T1 sequence (Q9UBN7 whole entry): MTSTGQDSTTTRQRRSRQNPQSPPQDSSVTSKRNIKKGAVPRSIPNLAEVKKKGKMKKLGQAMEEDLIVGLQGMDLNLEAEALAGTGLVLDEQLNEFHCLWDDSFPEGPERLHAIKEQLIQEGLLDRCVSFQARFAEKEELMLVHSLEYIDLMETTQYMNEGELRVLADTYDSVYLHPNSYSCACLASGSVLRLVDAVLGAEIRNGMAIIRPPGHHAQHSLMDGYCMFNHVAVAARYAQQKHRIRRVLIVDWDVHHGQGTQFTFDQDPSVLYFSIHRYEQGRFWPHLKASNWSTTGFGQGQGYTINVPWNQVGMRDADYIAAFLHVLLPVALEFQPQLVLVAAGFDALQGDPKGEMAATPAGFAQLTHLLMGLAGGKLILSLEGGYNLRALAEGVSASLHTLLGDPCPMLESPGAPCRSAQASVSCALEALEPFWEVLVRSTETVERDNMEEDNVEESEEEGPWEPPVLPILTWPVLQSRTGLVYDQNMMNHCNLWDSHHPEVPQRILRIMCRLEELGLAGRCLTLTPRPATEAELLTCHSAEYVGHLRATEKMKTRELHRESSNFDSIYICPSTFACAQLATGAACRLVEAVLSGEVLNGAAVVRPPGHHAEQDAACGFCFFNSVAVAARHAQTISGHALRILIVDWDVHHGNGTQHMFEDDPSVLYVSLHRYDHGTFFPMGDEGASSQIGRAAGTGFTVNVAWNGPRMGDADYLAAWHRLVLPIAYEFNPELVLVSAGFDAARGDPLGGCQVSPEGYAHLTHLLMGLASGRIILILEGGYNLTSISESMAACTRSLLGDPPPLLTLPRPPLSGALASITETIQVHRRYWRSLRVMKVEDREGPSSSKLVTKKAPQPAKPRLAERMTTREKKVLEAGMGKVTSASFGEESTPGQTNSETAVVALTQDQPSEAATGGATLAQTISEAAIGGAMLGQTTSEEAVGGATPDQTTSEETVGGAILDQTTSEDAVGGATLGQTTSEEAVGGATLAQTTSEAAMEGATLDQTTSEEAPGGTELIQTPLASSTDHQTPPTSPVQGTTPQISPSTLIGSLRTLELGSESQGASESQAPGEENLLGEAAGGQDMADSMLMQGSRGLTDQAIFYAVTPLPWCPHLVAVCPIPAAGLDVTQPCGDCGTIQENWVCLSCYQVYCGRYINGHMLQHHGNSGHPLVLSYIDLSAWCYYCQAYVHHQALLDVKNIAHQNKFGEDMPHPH
Nature of the experiment: Inhibition of human KDAC6 by fluorescence assay.

Experiment [2] addresses T2, Histone deacetylase 8 (Homo sapiens, UniProt Q9BY41).
T2 sequence (Q9BY41 whole entry): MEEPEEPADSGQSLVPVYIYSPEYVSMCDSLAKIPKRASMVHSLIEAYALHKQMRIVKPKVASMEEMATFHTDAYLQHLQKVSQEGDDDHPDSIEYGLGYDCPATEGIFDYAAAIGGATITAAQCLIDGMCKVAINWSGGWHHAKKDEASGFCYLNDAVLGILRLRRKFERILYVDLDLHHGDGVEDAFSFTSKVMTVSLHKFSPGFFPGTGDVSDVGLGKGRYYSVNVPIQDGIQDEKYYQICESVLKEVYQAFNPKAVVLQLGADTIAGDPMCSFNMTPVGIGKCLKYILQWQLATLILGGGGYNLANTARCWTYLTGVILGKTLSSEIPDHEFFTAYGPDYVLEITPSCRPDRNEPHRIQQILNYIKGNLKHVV
Nature of the experiment: Inhibition of human KDAC8 by fluorescence assay.

Experiment [3] addresses T2, Histone deacetylase 8. Kind of experiment: Inhibition of recombinant human KDAC8 using FAM-labelled substrate B incubated for 60 mins by microfluidic chip-based assay.
For experiment [4], the target named is T3, Histone deacetylase 3 (Homo sapiens, UniProt O15379). Kind of experiment: Inhibition of recombinant human KDAC3 using FITC-p53 acetylated peptide substrate incubated for 60 mins by microfluidic chip-based assay.
Experiment [5] concerns the target T4, Histone deacetylase 1 (Homo sapiens, UniProt Q13547). Nature of the experiment: Inhibition of recombinant human KDAC1 using FAM-labelled substrate A incubated for 60 mins by microfluidic chip-based assay.
For experiment [6], the target named is T4, Histone deacetylase 1. Kind of experiment: Inhibition of human KDAC1.
The target in experiment [7] is T3, Histone deacetylase 3. Kind of experiment: Inhibition of human KDAC3.
Experiment [8] has as its target T1, Protein deacetylase HDAC6. Nature of the experiment: Inhibition of human KDAC6.
The target of experiment [9] is T2, Histone deacetylase 8. Kind of experiment: Inhibition of human KDAC8.
Experiment [10] has as its target T2, Histone deacetylase 8. Nature of the experiment: Inhibition of full length human recombinant KDAC8 using fluorophore-conjugated substrate measured as fluorigenic release of 7-amino-4-methylcoumarin by microtiter plate reader analysis.

Structures are written as SMILES.

T4 sequence (Q13547 whole entry): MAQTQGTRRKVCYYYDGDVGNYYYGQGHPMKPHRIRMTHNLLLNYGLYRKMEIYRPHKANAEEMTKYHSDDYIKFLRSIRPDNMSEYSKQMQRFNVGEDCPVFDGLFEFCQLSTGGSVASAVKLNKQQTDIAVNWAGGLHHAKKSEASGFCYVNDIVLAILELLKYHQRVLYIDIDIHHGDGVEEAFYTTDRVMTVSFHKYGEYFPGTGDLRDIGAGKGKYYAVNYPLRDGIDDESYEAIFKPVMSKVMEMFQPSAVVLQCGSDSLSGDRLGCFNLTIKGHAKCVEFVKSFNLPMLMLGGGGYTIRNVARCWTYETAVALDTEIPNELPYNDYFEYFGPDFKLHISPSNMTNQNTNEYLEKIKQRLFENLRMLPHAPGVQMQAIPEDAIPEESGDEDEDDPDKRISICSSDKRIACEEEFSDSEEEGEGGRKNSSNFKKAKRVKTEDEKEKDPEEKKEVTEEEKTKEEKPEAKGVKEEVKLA
T3 sequence (O15379 whole entry): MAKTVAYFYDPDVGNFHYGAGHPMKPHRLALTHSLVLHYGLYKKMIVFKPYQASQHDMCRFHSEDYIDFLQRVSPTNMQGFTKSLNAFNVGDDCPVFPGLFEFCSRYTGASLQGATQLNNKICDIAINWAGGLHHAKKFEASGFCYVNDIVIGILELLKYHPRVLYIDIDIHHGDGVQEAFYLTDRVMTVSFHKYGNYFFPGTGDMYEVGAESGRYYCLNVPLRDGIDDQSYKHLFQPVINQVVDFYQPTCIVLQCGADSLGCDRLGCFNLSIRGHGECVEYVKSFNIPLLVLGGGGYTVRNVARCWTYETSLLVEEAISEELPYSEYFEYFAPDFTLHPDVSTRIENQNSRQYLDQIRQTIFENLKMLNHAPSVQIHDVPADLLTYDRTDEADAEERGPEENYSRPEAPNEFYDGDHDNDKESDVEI

With `Nc1ccccc1NC(=O)c1ccc(-c2cn(CCc3ccsc3)nn2)cc1`, the half-maximal inhibitory concentration (IC50) (in experiment [1]; at Histone deacetylase 8 [2]) was > 30 µM each time.
`CC(C)[C@@H]1NC(=O)[C@@H]2CCCN2C(=O)[C@H]2CCCN2C(=O)C[C@@H](C(=O)NCCCC(=O)NO)NC1=O`: the IC50 on Histone deacetylase 8 [3] was > 30 µM; at Histone deacetylase 3 [4], 13.7 µM; on Histone deacetylase 1 [5], 25.1 µM.
The like results for `CC(C)[C@@H]1NC(=O)[C@H]2CCCN2C(=O)[C@@H]2CCCN2C(=O)C[C@H](C(=O)NCCCC(=O)NO)NC1=O` were, in that order, > 30 µM, > 30 µM and > 30 µM.
Consider `CC(=O)SCC/C=C/[C@@H]1CC(=O)NCc2ccc(cc2)C2=N[C@@](C)(CS2)C(=O)N[C@@H](C(C)C)C(=O)O1`, for which the IC50 was 3.48 µM at Histone deacetylase 1 [6], 0.47 µM on Histone deacetylase 3 [7], 1.61 µM in [8] and > 30 µM against Histone deacetylase 8 [9].
Consider `CCCCCCCC(=O)SCC/C=C/[C@@H]1CC(=O)NCc2nc(cs2)C2=N[C@@](C)(CS2)C(=O)N[C@@H](C(C)C)C(=O)O1` [LARGAZOLE], for which the IC50 at Histone deacetylase 8 [10] was > 30 µM.
